The nature of series [1]: Live/Dead cytotoxicity assay, hybridoma supernatant. Type of series: cell-based. Particulars: human, hybridoma supernatant (or cycloheximide positive control), calcein. The procedure: Three human breast cancer cell lines were tested: MDA-MB-231, MDA-MB-468 and SKBR-3. […] The wells that served as the positive controls were aspirated until empty and 100 μL of sodium azide (NaN3) or cycloheximide was added. After 5 days of treatment, the plates were then emptied by inverting and blotting dry. […] The AR2A72.10 hybridoma produced specific cytotoxicity of 15,27 and 44 percent in MDA-MB-231, MDA-MB-468 and SKBR-3 cells respectively. The known non-specific cytotoxic agent cycloheximide produced cytotoxicity as expected given the limitations of in vitro biological assays.

For series [2], the system named is Hs888 Lu. Particulars: 5 days; AR2A72.10 and AR3BD-26 20 μg/mL, anti-fas and anti-Her2/neu 10 μg/mL, anti-EGFR 5 μg/mL, cycloheximide 0.5 μM, NaN3 0.1%.
Experimental: Antibodies were tested against a panel of ovarian cancer, and normal cell lines. Two ovarian cancer (OVCAR-3, Sk-OV-3) and non-cancer (CCD-27sk, Hs888.Lu) cell lines were obtained from the ATCC, Manassas, Va. A2780-cp, A2780-s, C-13, OV2008, ES-2, Hey, OCC-1, OVCA-429 were obtained from the Ottawa Regional Cancer Center (Ottawa, ON). The Live/Dead cytotoxicity assay was obtained from Molecular Probes (Eugene, Oreg.). The assays were performed according to the manufacturer's instructions with the changes outlined below. Cells were plated before the assay at the predetermined appropriate density. After 2 days, purified antibody or controls were diluted into media, and then 100 microliters were transferred to the cell plates and incubated in a 5 percent CO2 incubator for 5 days. The plate was then emptied by inverting and blotted dry. Room temperature DPBS containing MgCl2 and CaCl2 was dispensed into each well from a multi-channel squeeze bottle, tapped three times, emptied by inversion and then blotted dry. 50 microliters of the fluorescent calcein dye diluted in DPBS containing MgCl2 and CaCl2 was added to each well and incubated at 37° C. in a 5 percent CO2 incubator for 30 minutes. […]

Read-outs that look alike come from different tables or passages of the source.

In the case of `C[C@@H]1C[C@@H]([C@H](O)CC2CC(=O)NC(=O)C2)C(=O)[C@@H](C)C1` [Cycloheximide], the results for the cytotoxicity at 5 days in series [1] (read-out: Cytotoxicity (%) MDA-MB-231 Average), in series [1] (read-out: Cytotoxicity (%) MDA-MB-468 Average) and in series [1] (read-out: Cytotoxicity (%) SKBR-3 Average) were 49%, 24% and 56%, respectively.

As to `[N-]=[N+]=[N-]` [NaN3, sodium azide], in series [2], the “In vitro cytotoxicity, Hs888 Lu (normal)” value is reported as “+++ (4/4 experiments greater than threshold cytotoxicity)”.
